Marks after values point to notes of the source that are not given here.
How the values were obtained:
[1] = target: T1, TRPV4 channel receptor (Homo sapiens, UniProt Q9HBA0); experiment: Whole cell patch clamp, HEK293 MSRII cells transduced with human TRPV4 BacMam virus; type: cell-based; set-up: V5-His (from the vector's name only); expressed in transfected cells; host or cells: HEK293
Excerpt: Functional, cell-based assays presently utilized to evaluate the activity of TRPV4 channel receptor agonists (e.g., FLIPR) provide an indirect, downstream measure of channel activation or blockage. In order to more directly evaluate a compound's effect on TRPV4 channel receptor, procedures to electrophysiologically record current flow through TRPV4 channels have been established. These procedures utilize HEK293 MSRII cells transiently transduced with 5% human TRPV4 BacMam virus, a standard extracellular physiological saline solution, and a well established, potassium channel-blocking electrode (internal) solution (Vriens et al., PNAS, 2004). Standard whole cell patch clamp techniques were used to maintain cells at a holding potential of 0 mV between inductions of 200 msec, −100 mV to +100 mV ramp protocols every 5 seconds. The inset of FIG. 1 represents the inward and outward current amplitude at −100 mV and +100 mV, respectively, during each ramp protocol prior to (baseline) and throughout the administration of 100 nM Formula IId. The main body of FIG. 1 illustrates the recorded current flow in response to a −100 mV to +100 mV ramp at the five specific times labelled in the inset.

[2] = target: T1, TRPV4 channel receptor; experiment: Ca2+ influx in human articular chondrocytes (FlexStation)
[3] = tested on: aggrecanase; experiment: IL-1 induced aggrecanase production, chondrocyte-based aggrecanase peptide cleavage assay; type: cell-based, bovine; conditions: Bos taurus
Excerpt: Aggrecanases (ADAMTSs), in conjunction with MMPs, degrade aggrecan, one of the major matrix components in articular cartilage. […] 2003; 48(1): 119-133].

[4] = tested on: bovine articular cartilage explants; experiment: IL-1 induced collagen degradation (hydroxyproline) in bovine articular cartilage explants; type: cell-based
Protocol: IL-1 stimulates collagen degradation in bovine articular cartilage explants after extended (−2-3 weeks) exposure to IL-1. Collagen breakdown was evaluated by measuring the levels of hydroxyproline, a major component of hydrolyzed collagen fibrils, using a colorimetric assay that is understood in the art. Bovine articular cartilage was stimulated with IL-1 for 18 days, in the absence or presence of Formula Ib or Formula IId (both at 1 uM). Media was removed and replaced every 2-4 days with fresh IL-1 and compound through day 18. As has been shown previously, aggrecan degradation precedes collagen breakdown in IL-1-stimulated bovine cartilage explants. Once aggrecan depletion had been achieved by day 10, media were analyzed for collagen breakdown using the hydroxyproline assay.

[5] = target: T2, TRPV4 channel receptor (Bos taurus, UniProt A0A8F4X677); experiment: Ca2+ influx in bovine articular chondrocytes (FlexStation); type: cell-based; conditions: bovine chondrocytes
T2 construct: endogenous in cells; host or cells: bovine articular chondrocytes
T2 sequence (A0A8F4X677 1-871): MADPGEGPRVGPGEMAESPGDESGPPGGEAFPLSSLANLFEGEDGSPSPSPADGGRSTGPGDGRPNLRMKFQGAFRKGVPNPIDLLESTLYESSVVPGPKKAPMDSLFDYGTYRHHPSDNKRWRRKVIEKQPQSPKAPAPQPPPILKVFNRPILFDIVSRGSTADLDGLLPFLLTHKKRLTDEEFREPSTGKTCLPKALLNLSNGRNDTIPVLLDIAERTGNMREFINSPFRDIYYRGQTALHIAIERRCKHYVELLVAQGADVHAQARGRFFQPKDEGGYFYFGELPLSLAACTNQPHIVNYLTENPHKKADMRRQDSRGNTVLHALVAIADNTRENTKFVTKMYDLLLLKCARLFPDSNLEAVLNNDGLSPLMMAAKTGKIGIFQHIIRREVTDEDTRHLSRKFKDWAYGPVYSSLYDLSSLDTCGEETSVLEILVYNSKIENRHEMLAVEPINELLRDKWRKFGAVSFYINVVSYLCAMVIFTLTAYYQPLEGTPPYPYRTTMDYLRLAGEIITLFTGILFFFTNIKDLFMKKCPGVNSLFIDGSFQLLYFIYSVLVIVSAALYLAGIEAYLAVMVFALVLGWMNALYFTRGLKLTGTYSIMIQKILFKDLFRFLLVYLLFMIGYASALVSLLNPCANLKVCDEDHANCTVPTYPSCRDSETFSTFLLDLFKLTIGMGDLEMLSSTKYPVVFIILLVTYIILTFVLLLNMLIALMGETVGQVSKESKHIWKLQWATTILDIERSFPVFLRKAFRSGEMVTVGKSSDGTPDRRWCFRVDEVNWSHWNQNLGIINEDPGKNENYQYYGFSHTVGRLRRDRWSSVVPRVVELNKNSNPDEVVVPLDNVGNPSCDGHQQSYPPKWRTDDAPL

[6] = tested on: HEK293 MSRII cells without human TRPV4 vector; experiment: Whole cell patch clamp, HEK293 MSRII cells exposed to BacMam virus alone; type: cell-based; conditions: 3 μM
[7] = tested on: bovine articular cartilage explants; experiment: IL-1 induced aggrecan degradation (GAG release, DMMB) in bovine articular cartilage explants; type: cell-based; conditions: Bos taurus; IL-1-stimulated bovine cartilage
Excerpt: Articular cartilage explants isolated from newborn calves at slaughter were placed in culture, and aggrecan degradation was initiated through stimulation with IL-1. Since aggrecan degradation in this model is believed to be mediated by aggrecanase, TRPV4 channel receptor agonists that are active in the chondrocyte-based aggrecanase peptide assay (Example 11) may also be effective inhibitors in the cartilage explant assay, presumably by blocking aggrecanase production in these tissues.
At the end of the culture period, conditioned media were assayed for glycosaminoglycan (GAG) levels by colorimetric (DMMB) assay as a measure of aggrecan degradation. In bovine explants, IL-1 induced a profound increase in the amount of GAG released into the media during the 3 day culture. When cartilage was treated with IL-1 in combination with Formula IIc, there was a concentration-dependent reduction in GAG release as shown in Table 5.

[8] = tested on: human cartilage explants; experiment: Aggrecan degradation (GAG, DMMB) in human cartilage explants; type: cell-based; conditions: for GAG Mean ± SEM: cumulative, 21 days
Protocol: Because the progression of aggrecan degradation in response to IL-1 in human cartilage is slower than in bovine cartilage, culture media was removed and replaced with fresh treatments every 2-3 days for approximately 3 weeks. For each timepoint, GAG levels were measured by DMMB assay, and cumulative data released over the entire 3 week culture period was calculated.
The data represents cumulative aggrecan degradation after 21 days in culture. […] In addition, Formula IId caused a concentration-dependent reduction of IL-1-induced aggrecan degradation. […] The estimated IC50's shown in Table 7 are very similar to those IC50's calculated from IL-1-stimulated bovine cartilage.

T1 sequence (Q9HBA0 whole entry): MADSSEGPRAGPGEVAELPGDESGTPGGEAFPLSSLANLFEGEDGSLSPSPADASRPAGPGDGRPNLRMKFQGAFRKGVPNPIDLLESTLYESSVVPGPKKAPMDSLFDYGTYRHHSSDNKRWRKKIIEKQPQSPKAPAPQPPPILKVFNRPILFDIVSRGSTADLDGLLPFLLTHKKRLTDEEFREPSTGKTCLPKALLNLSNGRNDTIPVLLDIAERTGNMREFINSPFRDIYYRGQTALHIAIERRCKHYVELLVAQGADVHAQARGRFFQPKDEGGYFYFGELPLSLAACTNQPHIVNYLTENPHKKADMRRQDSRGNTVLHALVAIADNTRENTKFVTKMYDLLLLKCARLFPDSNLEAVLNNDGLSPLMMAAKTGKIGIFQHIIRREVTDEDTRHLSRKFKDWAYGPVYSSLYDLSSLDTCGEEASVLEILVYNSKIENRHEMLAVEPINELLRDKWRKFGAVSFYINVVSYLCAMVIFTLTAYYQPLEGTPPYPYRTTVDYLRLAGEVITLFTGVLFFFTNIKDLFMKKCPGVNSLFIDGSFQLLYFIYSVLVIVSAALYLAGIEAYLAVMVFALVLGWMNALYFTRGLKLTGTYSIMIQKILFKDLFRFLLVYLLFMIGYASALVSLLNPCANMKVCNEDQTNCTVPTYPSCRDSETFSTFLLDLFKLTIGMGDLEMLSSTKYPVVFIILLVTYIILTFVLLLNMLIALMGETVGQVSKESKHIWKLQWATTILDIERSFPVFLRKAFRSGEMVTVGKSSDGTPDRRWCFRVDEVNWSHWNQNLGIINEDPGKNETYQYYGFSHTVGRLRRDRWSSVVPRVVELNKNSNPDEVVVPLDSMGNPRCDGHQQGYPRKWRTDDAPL

SMILES: CC(C)C[C@H](NC(=O)c1cc2ccccc2s1)C(=O)N[C@@H]1CCCN(S(=O)(=O)c2ccccc2C#N)CC1=O [Formula IId, N-{(1s)-1-[({(4r)-1-[(2-Cyanophenyl)Sulfonyl]-3-Oxohexahydro-1H-Azepin-4-Yl}Amino)Carbonyl]-3-Methylbutyl}-1-Benzothiophene-2-Carboxamide]
- TRPV4 channel receptor-mediated current ([1]; 100 nM, -100 mV to +100 mV ramp): activated a human TRPV4 channel receptor
- lowest concentration observed to activate the human TRPV4 channel receptor ([1]; whole cell patch clamp): 10 nM
- EC50 ([2]; Ca Influx - FLEX (human) EC50, human chondrocytes): 110 nM
- Ca Influx - FLEX (human) % effic. ([2]; human chondrocytes): 179%
- IC50 [3]: 40 nM
- block of IL-1-induced collagen degradation [4]: partially, but effectively, blocked
- Ca Influx - FLEX (bovine) % effic. [5]: 79%
- EC50 ([5]; read-out: Ca Influx - FLEX (bovine) EC50): 120 nM
- effect on membrane currents [6]: no measurable effect
- IC50 [7]: 10 nM
- inhibition at 0.01 µM ([8]; Homo sapiens, IL-1 (100 ng/ml), 0.01 uM, relative to IL-1 stim. GAG release): 35%
- inhibition at 0.1 µM ([8]; Homo sapiens, IL-1 (100 ng/ml), 0.1 uM, relative to IL-1 stim. GAG release): 89%
- inhibition at 1 µM ([8]; Homo sapiens, IL-1 (100 ng/ml), 1 uM, relative to IL-1 stim. GAG release): > 100%
- inhibition at 0.01 µM ([8]; Homo sapiens, unstimulated, 0.01 uM, relative to control GAG release): 12%
- inhibition at 0.1 µM ([8]; Homo sapiens, unstimulated, 0.1 uM, relative to control GAG release): 34%
- inhibition at 1 µM ([8]; Homo sapiens, unstimulated, 1 uM, relative to control GAG release): 45%
- IC50 ([8]; Homo sapiens, estimated, 3-point concentration response): 30 nM
- GAG Mean ± SEM ([8]; IL-1 (100 ng/ml), 0.01 uM): 15.9 ± 1.6 µg/mg
- GAG Mean ± SEM ([8]; IL-1 (100 ng/ml), 0.1 uM): 8.2 ± 0.5 µg/mg
- GAG Mean ± SEM ([8]; IL-1 (100 ng/ml), 1 uM): 4.8 ± 0.5 µg/mg
- % inhibition ([8]; IL-1 (100 ng/ml), 1 uM, relative to IL-1 stim. GAG release): 113** %
- blocking of aggrecan degradation in unstimulated human cartilage explants ([8]; absence of IL-1): effective in blocking aggrecan degradation
- GAG Mean ± SEM ([8]; unstimulated control, 0.01 uM): 5.9 ± 0.3 µg/mg
- GAG Mean ± SEM ([8]; unstimulated control, 0.1 uM): 4.4 ± 0.2 µg/mg
- GAG Mean ± SEM ([8]; unstimulated control, 1 uM): 3.7 ± 0.3 µg/mg

From patent US20070259856A1, “Method for Activating Trpv4 Channel Receptors by Agonists” (priority 2004, published 2007)
